This is an account of results in paper PMC12081877 (Nature Communications, 2025).

In one assay the test system is a panel of M^pro mutants. It counts as biochemical, SARS-CoV-2.
The test system of another assay is ISM3312 P18 virus. It is filed as cell-based, SARS-CoV-2.

Turning to `Cn1cnc(Cn2c(=O)[nH]/c(=N\c3cc4cn(C)nc4cc3Cl)n(Cc3cc(F)c(F)cc3F)c2=O)n1` [Ensitrelvir], the resistance level entry in the assay with a panel of M^pro mutants was “moderate- to high-levels resistance”.

For `CC(C)(C)[C@H](NC(=O)C(F)(F)F)C(=O)N1C[C@H]2[C@@H]([C@H]1C(=O)N[C@H](C#N)C[C@@H]1CCNC1=O)C2(C)C` [Nirmatrelvir], the “resistance level against the ISM3312 P18 virus” value in the assay on ISM3312 P18 virus is “no resistance (key: white, no resistance ( < threefold); light blue, low-level resistance (3- to 10-fold); Medium blue, moderate-level resistance (10- to 50-fold); dark blue, high-level resistance ( > 50-fold))”.
